Measurements taken from ChEMBL document CHEMBL4828707, “Discovery of phenyl-linked symmetric small molecules as inhibitors of the programmed cell death-1/programmed cell death-ligand 1 interaction” (Eur J Med Chem, 2021).

Key:
[1] = biological target: T1, Programmed cell death protein 1/Programmed cell death 1 ligand 1 (Homo sapiens, UniProt Q9NZQ7); assay: (§1) Inhibition of Tag2-PD1/Tag1-PD-L1 (unknown origin) protein-protein interaction preincubated for 15 mins followed by addition of anti-Tag1-Eu3+ and anti-Tag2-XL665 measured after 2 hrs in dark by HTRF assay; assay type: protein-complex assay
T1 sequence (Q15116 whole entry): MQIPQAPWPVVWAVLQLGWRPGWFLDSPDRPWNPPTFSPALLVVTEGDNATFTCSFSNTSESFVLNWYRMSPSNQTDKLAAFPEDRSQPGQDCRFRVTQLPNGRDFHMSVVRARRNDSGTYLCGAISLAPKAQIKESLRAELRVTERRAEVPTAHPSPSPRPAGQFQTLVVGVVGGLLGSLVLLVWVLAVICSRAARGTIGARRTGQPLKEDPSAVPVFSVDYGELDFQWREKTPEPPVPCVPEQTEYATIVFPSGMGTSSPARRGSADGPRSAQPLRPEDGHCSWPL
T1 sequence (Q9NZQ7 whole entry): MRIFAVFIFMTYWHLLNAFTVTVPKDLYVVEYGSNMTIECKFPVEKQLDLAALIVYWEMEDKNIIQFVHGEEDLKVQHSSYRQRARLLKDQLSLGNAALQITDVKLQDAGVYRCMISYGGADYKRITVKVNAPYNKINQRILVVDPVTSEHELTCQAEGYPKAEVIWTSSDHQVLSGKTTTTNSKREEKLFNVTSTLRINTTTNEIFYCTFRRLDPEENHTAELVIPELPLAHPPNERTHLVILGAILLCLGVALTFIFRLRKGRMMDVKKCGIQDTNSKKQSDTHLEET

[2] = biological target: T2, Programmed cell death protein 1/Programmed cell death 1 ligand 1 (Homo sapiens, UniProt Q15116+Q9NZQ7); assay: as §1; assay type: protein-complex assay
T2 sequence (Q15116 whole entry): as the sequence (Q15116 whole entry) above
T2 sequence (Q9NZQ7 whole entry): as the sequence (Q9NZQ7 whole entry) above

[3] = Cytotoxicity against human PBMC at 3 uM measured after 48 hrs by CCK8 assay
[4] = Cytotoxicity against human HPDE6c7 cells at 2 to 10 uM measured after 48 hrs by CCK8 assay; assay type: cell-based; settings: hpde6c7, 48 h, dose 2-10 µM
L02 = assay: Cytotoxicity against human HL7702 cells at 2 to 10 uM measured after 48 hrs by CCK8 assay; assay type: cell-based; settings: l02, 48 h, dose 2-10 µM
[5] = biological target: T1, Programmed cell death protein 1/Programmed cell death 1 ligand 1; assay: Inhibition of PD1/PDL1 protein-protein interaction in human Jurkat cells overexpressing PD1 co-cultured with human Hep3B cells expressing PDL1 protein assessed as increase of TCR-mediated luminiscence measured after 6 hrs by NFAT reporter assay; assay type: cell-based
hERG (KCNH2) = hERG (KCNH2) (Homo sapiens, UniProt Q12809); assay: Inhibition of human ERG expressed in HEK293 cells at 10 uM measured by whole cell patch-clamp assay; assay type: cell-based; settings: HEK293 cells that express hERG
Sequence of hERG (KCNH2) (Q12809 whole entry): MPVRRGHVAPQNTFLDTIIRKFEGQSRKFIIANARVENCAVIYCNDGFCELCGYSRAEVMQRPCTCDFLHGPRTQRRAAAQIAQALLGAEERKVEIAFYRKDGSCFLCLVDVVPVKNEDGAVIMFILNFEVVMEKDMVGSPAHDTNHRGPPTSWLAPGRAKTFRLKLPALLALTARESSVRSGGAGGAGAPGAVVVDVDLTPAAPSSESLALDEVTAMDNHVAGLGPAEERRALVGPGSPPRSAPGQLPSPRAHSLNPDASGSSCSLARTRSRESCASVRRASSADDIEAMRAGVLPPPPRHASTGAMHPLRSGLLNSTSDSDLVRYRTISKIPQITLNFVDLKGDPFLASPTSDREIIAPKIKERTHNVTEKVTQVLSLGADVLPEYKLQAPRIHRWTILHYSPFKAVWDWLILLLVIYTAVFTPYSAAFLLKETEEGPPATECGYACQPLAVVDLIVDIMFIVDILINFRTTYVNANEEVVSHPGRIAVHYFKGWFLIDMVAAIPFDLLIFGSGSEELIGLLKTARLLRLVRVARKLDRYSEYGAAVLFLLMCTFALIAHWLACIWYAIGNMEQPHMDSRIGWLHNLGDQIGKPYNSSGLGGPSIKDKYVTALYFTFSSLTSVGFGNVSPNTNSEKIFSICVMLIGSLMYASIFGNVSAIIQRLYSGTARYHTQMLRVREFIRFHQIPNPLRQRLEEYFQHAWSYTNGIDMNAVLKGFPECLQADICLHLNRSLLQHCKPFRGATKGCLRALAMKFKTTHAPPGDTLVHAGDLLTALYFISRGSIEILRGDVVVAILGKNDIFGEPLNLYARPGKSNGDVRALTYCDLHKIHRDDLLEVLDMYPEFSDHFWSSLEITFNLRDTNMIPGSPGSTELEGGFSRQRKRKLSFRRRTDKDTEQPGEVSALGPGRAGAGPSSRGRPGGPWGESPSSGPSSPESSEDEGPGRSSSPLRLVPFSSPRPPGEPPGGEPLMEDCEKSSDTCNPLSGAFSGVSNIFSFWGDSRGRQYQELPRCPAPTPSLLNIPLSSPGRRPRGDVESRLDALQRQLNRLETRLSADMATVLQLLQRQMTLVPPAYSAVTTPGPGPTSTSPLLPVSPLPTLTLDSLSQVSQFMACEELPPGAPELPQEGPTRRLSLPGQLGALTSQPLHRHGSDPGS

[6] = biological target: T2, Programmed cell death protein 1/Programmed cell death 1 ligand 1; settings: time 6.0 hrs

COc1cc(-c2cccc(-c3cccc(-c4ccc(CNC5CCOCC5)c(OC)c4)c3C)c2C)ccc1CNC1CCOCC1
IC50 [1]: 34.4 nM

O=C(c1ccc(CNCCO)cc1)n1ccc2c(-c3cccc4c3ccn4C(=O)c3ccc(CNCCO)cc3)cccc21
IC50 [1]: 309 nM

COc1cc(-c2cccc(-c3cccc(-c4ccc(CNC(CO)CO)c(OC)c4)c3C)c2C)ccc1CNC(CO)CO
IC50 [1]: > 1000 nM

COc1cc(-c2cccc(-c3cccc(-c4ccc(CO)c(OC)c4)c3C)c2C)ccc1CO
IC50 [1]: 481 nM

Cc1c(NC(=O)c2ccc(CNCCO)nc2)cccc1-c1ccc2c(c1)OCCO2
IC50 [1]: > 1000 nM

Cc1c(-c2ccc3c(c2)OC(=O)N(CC(=O)O)C3)cccc1-c1ccc2c(c1)OCCO2
IC50 [2]: Not Active

O=C(c1ccc(CNCCO)cc1)N1CCc2c(-c3cccc4c3CCN4C(=O)c3ccc(CNCCO)cc3)cccc21
IC50 [1]: 18.6 nM

COc1cc(-c2cccc(-c3cccc(-c4ccc(CNC(CO)CO)c(OC)c4)c3C)c2C)ccc1CO
IC50 [1]: 48.7 nM

Cc1c(-c2ccc3c(c2)OCCO3)cccc1N1CCN(c2cccc(CNCCO)n2)C1=O
IC50 [1]: > 1000 nM

O=C(c1ccc(CNCCO)cc1)N1CCCc2c(-c3ccc4c(c3)OCCO4)cccc21
IC50 [1]: > 1000 nM

COc1cc(-c2cccc(-c3cccc(-c4ccc(CNCC(O)C(=O)O)c(OC)c4)c3C)c2C)ccc1CNCC(O)C(=O)O (stereo not drawn)
IC50 [1]: 4.01 nM
Activity [3]: Non-Toxic
Activity [4]: Non-Toxic
Activity (L02): Non-Toxic
EC50 [5]: 376 nM
inhibition at 10 µM (hERG (KCNH2)): 7.72%
RLU [6]: 27000

Cc1c(Nc2cc(-c3ccc(CNCCO)cc3)ccn2)cccc1-c1ccc2c(c1)OCCO2
IC50 [1]: > 1000 nM

Cc1c(-c2ccc3c(c2)OCCO3)cccc1N1CCN(c2ccc(CNCCO)cc2)C1=O
IC50 [1]: > 1000 nM

Cc1c(NS(=O)(=O)c2ccc(CNCCO)cc2)cccc1-c1ccc2c(c1)OCCO2
IC50 [1]: > 1000 nM

Cc1c(-c2ccc3c(c2)OCCO3)cccc1N1CCN(c2ncc(CNCCO)s2)C1=O
IC50 [1]: > 1000 nM

Cc1c(-c2ccc(CNCCO)cn2)cccc1-c1cccc(-c2ccc(CNCCO)cn2)c1C
IC50 [1]: > 1000 nM

COc1cc(-c2cccc(-c3ccc4c(c3)OCCO4)c2C)ccc1CNCCO
IC50 [2]: Not Active
inhibition at 10 µM (hERG (KCNH2)): 4.71%

Cc1c(-c2ccc3c(c2)OCCO3)cccc1N1CCN(c2cccc(CNCCO)c2)C1=O
IC50 [1]: > 1000 nM

Cc1c(-c2ccc3c(c2)OCCO3)cccc1N(C)C(=O)c1ccc(CNCCO)cn1
IC50 [1]: 764 nM

COc1cc(-c2cccc(-c3cccc(-c4ccc(CN5CCCCC5C(=O)O)c(OC)c4)c3C)c2C)ccc1CO (stereo not drawn)
IC50 [1]: 472 nM

Cc1c(-c2ccc(CNCCO)cc2)cccc1-c1cccc(-c2ccc(CNCCO)cc2)c1C
IC50 [1]: 45.6 nM

Cc1c(NC(c2ccc(CNCCO)cc2)C(F)(F)F)cccc1-c1ccc2c(c1)OCCO2 (stereo not drawn)
IC50 [1]: > 1000 nM

Cc1c(-c2ccc(CNCCO)cc2)cccc1-c1ccc2c(c1)OCCO2
IC50 [1]: 16.2 nM
inhibition at 10 µM (hERG (KCNH2)): 98%

Cc1c(-c2ccc3c(c2)OCCO3)cccc1-c1ccc(CNCCO)s1
IC50 [2]: Not Active

O=C(c1ccc(CNCCO)cc1)n1ccc2c(-c3ccc4c(c3)OCCO4)cccc21
IC50 [1]: > 1000 nM

COc1cc(-c2cccc(-c3cccc(-c4ccc(CNC5CCCC5O)c(OC)c4)c3C)c2C)ccc1CNC1CCCC1O (stereo not drawn)
IC50 [1]: 36.4 nM

Cc1c(-c2ccc3c(c2)CCCN(CCO)C3)cccc1-c1ccc2c(c1)OCCO2
IC50 [2]: Not Active

Cc1c(Nc2cccc(-c3ccc(CNCCO)cc3)n2)cccc1-c1ccc2c(c1)OCCO2
IC50 [1]: > 1000 nM

Cc1c(NC(=O)c2ccc(CNCCO)cn2)cccc1-c1ccc2c(c1)OCCO2
IC50 [1]: 5.04 nM

Cc1c(-c2ccc3c(c2)OC(=O)N(CCO)C3)cccc1-c1ccc2c(c1)OCCO2
IC50 [2]: Not Active

Cc1c(-c2ccc3c(c2)OCCO3)cccc1-c1ccc(CNCCO)o1
IC50 [1]: 191 nM

Cc1c(C(=O)Nc2ccc(CNCCO)cc2)cccc1-c1ccc2c(c1)OCCO2
IC50 [1]: > 1000 nM

Cc1c(-c2ccc3c(c2)OCCO3)cccc1-c1ccc(CNCCO)cn1
IC50 [1]: 19.6 nM

COc1cc(-c2cccc(-c3cccc(-c4ccc(CNCC5CCC(=O)N5)c(OC)c4)c3C)c2C)ccc1CNCC1CCC(=O)N1 (stereo not drawn)
IC50 [1]: 139 nM

Cc1c(-c2ccc3c(c2)OCCO3)cccc1-c1nnc(-c2ccc(CNCCO)cc2)o1
IC50 [1]: > 1000 nM

COc1cc(-c2cccc(-c3cccc(-c4ccc(CN5CC(C(=O)O)C5)c(OC)c4)c3C)c2C)ccc1CN1CC(C(=O)O)C1
IC50 [1]: 4.23 nM
Activity [3]: Non-Toxic
Activity [4]: Non-Toxic
Activity (L02): Non-Toxic
EC50 [5]: 104 nM
inhibition at 10 µM (hERG (KCNH2)): 3.93%
RLU [6]: 35800

O=C(c1ccc(CNCCO)cc1)N1CCc2c(-c3ccc4c(c3)OCCO4)cccc21
IC50 [1]: 150 nM

Cc1c(-c2ccc3c(c2)OCCO3)cccc1N1Cc2cc(CNCCO)ccc2C1=O
IC50 [1]: > 1000 nM

Cc1c(-c2ccc3c(c2)NCC(=O)N(CCO)C3)cccc1-c1ccc2c(c1)OCCO2
IC50 [2]: Not Active

Cc1c(-c2ccc3c(c2)OCCO3)cccc1N1CCN(c2ccc(CNCCO)cn2)C1=O
IC50 [1]: > 1000 nM

Cc1c(NC(=O)c2ccc(CNCCO)cc2)cccc1-c1ccc2c(c1)OCCO2
IC50 [1]: > 1000 nM

COc1cc(-c2cccc(-c3cccc(-c4ccc(CNCCO)c(OC)c4)c3C)c2C)ccc1CNCCO
IC50 [1]: 48.6 nM

COc1cc(-c2cccc(-c3cccc(-c4ccc(CNC(CO)C(=O)O)c(OC)c4)c3C)c2C)ccc1CNC(CO)C(=O)O (stereo not drawn)
IC50 [1]: 3.9 nM
Activity [3]: Non-Toxic
Activity [4]: Non-Toxic
Activity (L02): Non-Toxic
EC50 [5]: 775 nM
inhibition at 10 µM (hERG (KCNH2)): -0.67%
RLU [6]: 30600
